Values quoted from earlier work in patent US6927272B2, “Electronic component-use material and electronic component using it” (Matsushita Electric Industrial Co., Ltd., priority 2001, dated 2005).
Read-outs that look alike come from different tables or passages of the source.

Conditions: room temperature (20-30° C.)

Cc1c(COC(=O)[C@@H]2[C@H](/C=C(\Cl)C(F)(F)F)C2(C)C)cccc1-c1ccccc1 (racemic) [bifenthrin]
Vapor Pressure: 24,000 nPa

CC(C)=CC1C(C(=O)OCc2cccc(Oc3ccccc3)c2)C1(C)C (stereo not drawn) [phenothrin]
Vapor Pressure: 160,000 nPa

CC(C)[C@@H](Nc1ccc(C(F)(F)F)cc1Cl)C(=O)OC(C#N)c1cccc(Oc2ccccc2)c1 (stereo partly drawn) [τ-fulvalinate]
Vapor Pressure: 13,000 nPa

CC(C)[C@H](C(=O)OC(C#N)c1cccc(Oc2ccccc2)c1)c1ccc(OC(F)F)cc1 (stereo partly drawn) [flucythrinate]
Vapor Pressure: 1,200 nPa

CCOc1ccc([Si](C)(C)CCCc2ccc(F)c(Oc3ccccc3)c2)cc1 [silafluofen]
Vapor Pressure: 731,500 nPa

CC(C)=CC1C(C(=O)OCc2coc(Cc3ccccc3)c2)C1(C)C (stereo not drawn) [resmethrin]
Vapor Pressure: 1,500 nPa

CC1(C)C(/C=C(\Cl)C(F)(F)F)C1C(=O)OC(C#N)c1cccc(Oc2ccccc2)c1 (stereo not drawn) [λ-cyhalothrin]
Vapor Pressure: 200 nPa

CC1(C)C(C=C(Cl)Cl)C1C(=O)OC(C#N)c1cccc(Oc2ccccc2)c1 (stereo not drawn) [cypermethrin]
Vapor Pressure: 230 nPa

CC(C)=CC1C(C(=O)OC(C#N)c2cccc(Oc3ccccc3)c2)C1(C)C (stereo not drawn) [cyphenothrin]
Vapor Pressure: 400,000 nPa

CC1(C)C(C=C(Cl)Cl)C1C(=O)OC(C#N)c1ccc(F)c(Oc2ccccc2)c1 (stereo not drawn) [β-cyfluthrin]
Vapor Pressure (cis-form): cis-form 10/ nPa
Vapor Pressure (trans-form): 90 nPa

CC1(C)[C@H](C(=O)O[C@H](C#N)c2cccc(Oc3ccccc3)c2)[C@@H]1C=C(Br)Br [deltamethrin]
Vapor Pressure: 2,000 nPa

CC1(C)[C@H](C(=O)O[C@H](C#N)c2cccc(Oc3ccccc3)c2)[C@@H]1/C=C\C(=O)OC(C(F)(F)F)C(F)(F)F [acrinathrin]
Vapor Pressure: 390 nPa

CC(C)C(C(=O)OC(C#N)c1cccc(Oc2ccccc2)c1)c1ccc(Cl)cc1 (stereo not drawn) [fenvalerate]
Vapor Pressure: 37,000 nPa

CC(C)=CC1C(C(=O)OCN2C(=O)C3=C(CCCC3)C2=O)C1(C)C (stereo not drawn) [d-tetramethrin]
Vapor Pressure: 320,000 nPa

CC1(C)[C@H](C(=O)O[C@H](C#N)c2cccc(Oc3ccccc3)c2)[C@@H]1C(Br)C(Br)(Br)Br (stereo partly drawn) [tralomethrin]
Vapor Pressure: 0.017 nPa

CC1(C)C(C=C(Cl)Cl)C1C(=O)OCc1cccc(Oc2ccccc2)c1 (stereo not drawn) [permethrin]
Vapor Pressure: 45,000 nPa

Cc1c(F)c(F)c(COC(=O)[C@@H]2[C@H](/C=C(\Cl)C(F)(F)F)C2(C)C)c(F)c1F (racemic) [tefluthrin]
Vapor Pressure: 80,000,000 nPa
